Laboratory results from ChEMBL document CHEMBL1125980, “Structural homologies among thromboxane (TXA2) receptor antagonists: Minimal pharmacophoric requirements for high affinity interaction with TXA2 receptors” (Bioorg Med Chem Lett, 1991).
pIC50, pKd: −log10 of the molar value.

Columns and labels:
[1] = species: Homo sapiens; test: Tested for concentration required for antagonism of U-46,619-Induced Human Platelet Aggregation; type: functional
[2] = molecular target: T1, Thromboxane A2 receptor (Homo sapiens, UniProt P21731); test: Tested for binding affinity against platelet TXA2 receptor in washed human platelets using [125I]BOP as radioligand
T1 sequence (P21731 whole entry): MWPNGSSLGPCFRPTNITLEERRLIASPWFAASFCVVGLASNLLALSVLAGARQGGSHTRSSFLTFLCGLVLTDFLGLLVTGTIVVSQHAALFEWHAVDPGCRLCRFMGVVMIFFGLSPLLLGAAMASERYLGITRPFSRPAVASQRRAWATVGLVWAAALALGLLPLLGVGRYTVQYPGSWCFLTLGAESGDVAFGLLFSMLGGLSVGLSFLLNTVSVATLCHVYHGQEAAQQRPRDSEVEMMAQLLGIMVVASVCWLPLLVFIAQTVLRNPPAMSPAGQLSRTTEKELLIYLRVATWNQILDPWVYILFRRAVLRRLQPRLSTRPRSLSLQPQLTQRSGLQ

Row | Structure (SMILES) | pIC50 [1] | pKd [2]
1 | O=C(O)CCC/C=C\C[C@H]1CCC[C@@H]1NS(=O)(=O)c1ccccc1 | 6.82 | 8.12
2 | O=C(O)CCCCCCCCNS(=O)(=O)c1ccccc1 | 5.82 | 6.76
3 | O=C(O)CCC/C=C\CC1C2CCC(C2)C1NS(=O)(=O)c1ccccc1 (stereo not given) | 7.49 | 8.54
4 | O=C(O)CCC/C=C\C[C@H]1CCC[C@H]1NS(=O)(=O)c1ccccc1 | 6.60 | 7.44
5 | O=C(O)CCC/C=C/CCCNS(=O)(=O)c1ccccc1 | 6.00 | 7.17
